Laboratory results from patent publication US20050282755A1, “Compositions having antimicrobial activity and uses thereof” (priority 2004, published 2005).
Values after ≈ are worked out from the molar mass of the structure shown. Non-standard residues stand in square brackets, D forms with d. Residues, ends and D or L forms follow the SMILES beside them. *: point of attachment. Lauroyl = CCCCCCCCCCCC(=O)*

Key:
Type in all cases: cell-based
[1] = system: Staphylococcus aureus ATCC 29213; assay: MIC, NCCLS M7-A6 broth microdilution, cation-adjusted Mueller Hinton broth (Table 9, no superscript); conditions: ATCC 29213
Outline: (§1)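 Values come from a broth microdilution assay run in cation-adjusted Mueller Hinton broth with an inoculum of 5×10^5 to 1×10^6 CFU/milliliter, incubated overnight at 37° C and read as absence of visible turbidity.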

[2] = system: Candida albicans ATCC 18804; assay: MIC in yeasts, NCCLS M27-A2 broth microdilution, RPMI 1640 (Table 9, letter e); conditions: ATCC 18804
Outline: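 Plates incubated 24 to 48 hours at 37° C, with yeast seeded at 0.5×10^3–2.5×10^3 CFU/milliliter final in RPMI 1640 (glutamine, phenol red indicator). MIC was read as the lowest peptide concentration showing no visible growth.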

Salmonella dublin (Lane) = assay: MIC, NCCLS M7-A6 broth microdilution (Table 9, no superscript)
Outline: as §1

[3] = system: Staphylococcus epidermidis ATCC 12228; assay: as above; conditions: ATCC 12228
Outline: as §1

[4] = system: Escherichia coli ATCC 25922; assay: as above; conditions: ATCC 25922
Outline: as §1

[5] = system: Pseudomonas aeruginosa ATCC 27853; assay: as above; conditions: ATCC 27853
Outline: as §1

[6] = system: Propionibacterium acnes ATCC 6919; assay: MIC, agar dilution method NCCLS M11-A6, Brucella agar, anaerobic (Table 9, superscript c); conditions: ATCC 6919
Outline: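 MIC taken as the lowest peptide level giving no colonies on the plate. Plates were inoculated to 1.5×10^8 CFU/milliliter, then kept anaerobically at 37° C. for 48-96 hours; method follows NCCLS M11-A6.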

Compound | MIC S. aureus [1] [µg/mL] | MIC C. albicans [2] [e ug/mL] | MIC S. dublin (Salmonella dublin (Lane)) [µg/mL] | MIC S. epidermidis [3] [µg/mL] | MIC E. coli [4] [µg/mL] | MIC P. aeruginosa [5] [µg/mL] | MIC P. acnes [6] [c ug/mL]
CCCCCCCCCCCC(=O)N[C@@H](C(=O)N[C@H](CCCNC(=N)N)C(=O)N[C@@H](C(=O)N[C@H](C)C(=O)N[C@H](CCCNC(=N)N)C(=O)N[C@@H](C(=O)NCC(=O)N[C@H](CCCNC(=N)N)C(=O)N[C@H](CO)C(=O)N[C@H](CCCNC(=N)N)C(=O)N[C@H](Cc1c[nH]c2ccccc12)C(=O)N[C@H](CCCNC(=N)N)C(=O)N[C@H](CC(=O)O)C(=O)N[C@@H](C(=O)N[C@H](C)C(=O)N[C@H](CCCNC(=N)N)C(=O)N[C@H](CC(N)=O)C(=O)N[C@H](Cc1ccccc1)C(=O)N[C@H](CCSC)C(=O)N[C@H](CCCNC(=N)N)C(N)=O)C(C)C)[C@H](C)O)C(C)C)[C@H](C)O [Peptide 78, Lauryl-trvartgrsrwrdvarnfmr-NH2] (Lauroyl-[dT][dR][dV][dA][dR][dT]G[dR][dS][dR][dW][dR][dD][dV][dA][dR][dN][dF][dM][dR]-NH2) | 8 (≈ 2.99 µM) | 8 | 8 (≈ 2.99 µM) | 1 (≈ 0.374 µM) | 8 (≈ 2.99 µM) | 8 (≈ 2.99 µM) | 32
CCCCCCCCCCCC(=O)N[C@@H](CCCNC(=N)N)C(=O)N[C@@H](CO)C(=O)N[C@@H](CCCNC(=N)N)C(=O)N[C@@H](Cc1c[nH]c2ccccc12)C(=O)N[C@@H](CCCNC(=N)N)C(=O)N[C@@H](CC(=O)O)C(=O)N[C@H](C(=O)N[C@@H](C)C(=O)N[C@@H](CCCNC(=N)N)C(=O)N[C@@H](CC(N)=O)C(=O)N[C@@H](Cc1ccccc1)C(=O)N[C@@H](C)C(=O)N[C@@H](CCCNC(=N)N)C(N)=O)C(C)C [Peptide 97, Lauryl-RSRWRDVARNFAR-NH2] (Lauroyl-RSRWRDVARNFAR-NH2) | 16 (≈ 8.55 µM) | 8 | 32 (≈ 17.1 µM) | 2 (≈ 1.07 µM) | 32 (≈ 17.1 µM) | 32 (≈ 17.1 µM) | 64
CCCCCCCCCCCC(=O)N[C@@H](CCCNC(=N)N)C(=O)N[C@@H](CO)C(=O)N[C@@H](CCCNC(=N)N)C(=O)N[C@@H](Cc1c[nH]c2ccccc12)C(=O)N[C@@H](CCCNC(=N)N)C(=O)N[C@@H](CC(=O)O)C(=O)N[C@H](C(=O)N[C@@H](C)C(=O)N[C@@H](CCCNC(=N)N)C(=O)N[C@@H](CC(N)=O)C(=O)N[C@@H](Cc1ccccc1)C(=O)N[C@@H](CCSC)C(N)=O)C(C)C [Peptide 98, Lauryl-RSRWRDVARNFM-NH2] (Lauroyl-RSRWRDVARNFM-NH2) | 4 (≈ 2.25 µM) | 16 | 16 (≈ 9.01 µM) | 8 (≈ 4.51 µM) | 16 (≈ 9.01 µM) | 64 (≈ 36.1 µM) | >64
CCCCCCCCCCCC(=O)N[C@@H](CCCNC(=N)N)C(=O)N[C@@H](CO)C(=O)N[C@@H](CCCNC(=N)N)C(=O)N[C@@H](Cc1c[nH]c2ccccc12)C(=O)N[C@@H](CCCNC(=N)N)C(=O)N[C@@H](CC(=O)O)C(=O)N[C@H](C(=O)N[C@@H](C)C(=O)N[C@@H](CCCNC(=N)N)C(=O)N[C@@H](CC(N)=O)C(=O)N[C@@H](Cc1ccccc1)C(N)=O)C(C)C [Peptide 99, Lauryl-RSRWRDVARNF-NH2] (Lauroyl-RSRWRDVARNF-NH2) | 4 (≈ 2.43 µM) | 32 | >64 | 4 (≈ 2.43 µM) | 32 (≈ 19.5 µM) | >64 | >64
CCCCCCCCCCCC(=O)N[C@@H](CCCNC(=N)N)C(=O)N[C@@H](CO)C(=O)N[C@@H](CCCNC(=N)N)C(=O)N[C@@H](Cc1c[nH]c2ccccc12)C(=O)N[C@@H](CCCNC(=N)N)C(=O)N[C@@H](CC(=O)O)C(=O)N[C@H](C(=O)N[C@@H](C)C(=O)N[C@@H](CCCNC(=N)N)C(=O)N[C@@H](CC(N)=O)C(N)=O)C(C)C [Peptide 100, Lauryl-RSRWRDVARN-NH2] (Lauroyl-RSRWRDVARN-NH2) | 8 (≈ 5.34 µM) | 32 | >64 | 16 (≈ 10.7 µM) | >64 | >64 | >64
